Measured values reported in US8623998B2, “Method of production of polyanionic drug-carrier conjugates” (priority 2008, dated 2014).

Tested on: P388 leukemia
Assay: Survival of mice with P388 leukemia treated with methotrexate-fibrinogen conjugate
Format: in vivo
Conditions: dosage of methotrexate 40 mg/kg
Method: Table of survival of mice with P388 leukemia treated with methotrexate-fibrinogen conjugate. Dosage of methotrexate 40 mg/kg.
S—number of mice with no leukemia detected on the 60th day of the experiment (mice considered cured) L—number of mice which died before the control ILS—ILS increase of life span Conjugates F-MTX were obtained in the reaction of fibrinogen glycation with fructose. Conjugates G-MTX were obtained in the reaction of fibrinogen glycation with glucose. Glycation was carried out according to the high temperature procedure.
Table, of survival of, mice with P388 leukemia treated with methotrexate fibrinogen conjugate. Dosage of methotrexate 40 mg/kg.

Which results are given for `CN(Cc1cnc2nc(N)nc(N)c2n1)c1ccc(C(=O)N[C@@H](CCC(=O)O)C(=O)O)cc1` [Methotrexat, methotrexate]?
ILS (%) increase of life span: 36%; Mean survival rate (experiment ended on 60th day): 15.0
